Test results as given in patent US20030181426A1, “Compositions and methods for treating pain using cyclooxygenase-1 inhibitors” (priority 2002, published 2003).

Assays:
COX-1 and COX-2 = settings: as known in the art / Warner, 1999; cited from earlier work
phosphorylated CREB = assay: pCREB immunoreactive cells in dorsal horn of PSNL rats; format: in vivo; settings: for increased number of pCREB-IR cells in the ipsilateral dorsal horn: 5 days after injection, three weeks after PSNL
Protocol: Quantitative analysis of the pCREB expression in the dorsal horn of PSNL rats receiving either saline or ketorolac intraplantar injection was conducted. […] However, no significant difference in the mean optical density in a fixed area occupied by pCREB-IR cells was detected between both sides of the dorsal horn.

PGE2 = PGE2 concentration in cerebrospinal fluid of volunteers; format: in vivo, humans; settings: for Pre-injection PGE2: CSF before injection; for Post-injection PGE2: CSF 60 min after injection
tactile allodynia = assay: Partial sciatic nerve ligation (PSNL) tactile allodynia, i.t. COX inhibitors; format: in vivo, Sprague-Dawley rats
Source text: A Sprague-Dawley rats (Harlan Industries, Indianapolis, Ind., USA), weighing 200-250 g, were used in this study. All animal surgical procedures were in conformity with the Wake Forest University guidelines on the ethical use of animals and studies were approved by the Animal Care and Use Committee. Animals were implanted with intrathecal catheters according to the method described previously. (Yaksh TL, 1976). Briefly, under halothane anesthesia (2-4% in oxygen/air), animals were placed prone in a stereotaxic frame and a small incision was made at the back of the neck. A small puncture was made in the atlanto-occipital membrane of the cistema magna and a polyethylene catheter (PE-10, 7.5 cm) was inserted so that the caudal tip reached the lumbar enlargement of the spinal cord. The rostral end of the catheter was exteriorized at the top of the head and the wound was closed with sutures. Animals were allowed 4-5 days to recover from the surgery and those displaying signs of motor dysfunction (fore limb or hind limb paralysis) were excluded from the study. Rats were anesthetized with 2-4% halothane in oxygen-air. For partial […] nerve ligation (PSNL), the left sciatic nerve was exposed at the high thigh level and one-third to one-half of the nerve was ligated with silk suture (size 6) as previously described (Shir et al., 1991). Animals were maintained after surgery with ad libitum food and water on a 12-h light/dark cycle. All rats were allowed to recover for 4 weeks after PSNL. By then, tactile allodynia was well established in the ipsilateral hindpaw.

[1] = Phase I safety trial of intrathecal ketorolac in healthy volunteers; format: in vivo, humans
[2] = intraplantar injection, vs saline injected rats, P<0.01

O=C(c1ccccc1)c1ccc2n1CCC2C(=O)O (centres unmarked) [ketorolac]
preference in inhibition of COX-1 and COX-2 (COX-1 and COX-2): one of the most selective COX-1 antagonists | increased number of pCREB-IR cells in the ipsilateral dorsal horn (phosphorylated CREB; intraplantar injection): dramatically reduced | mean optical density of pCREB-IR cells, contralateral dorsal horn (phosphorylated CREB; [2]): significantly decreased | mean optical density of pCREB-IR cells, ipsilateral dorsal horn (phosphorylated CREB; [2]): significantly decreased | number of pCREB-IR cells in the contralateral dorsal horn (phosphorylated CREB; local injection, compared with saline injected PSNL rats): also decreased | increased number of pCREB-IR cells in the ipsilateral dorsal horn (phosphorylated CREB; peri-neural injection): dramatically reduced | Pre-injection PGE2 (PGE2; 0.25 mg dose group): 4.7 ± 0.7 pg/mL | Post-injection PGE2 (PGE2; 0.25 mg i.t.): 6.0 ± 0.9 pg/mL | Pre-injection PGE2 (PGE2; 0.50 mg dose group): 5.6 ± 1.9 pg/mL | Post-injection PGE2 (PGE2; 0.50 mg i.t.): 3.8 ± 0.6 pg/mL | Pre-injection PGE2 (PGE2; 1.0 mg dose group): 4.1 ± 0.9 pg/mL | Post-injection PGE2 (PGE2; 1.0 mg i.t.): 8.5 ± 1.7 pg/mL | Pre-injection PGE2 (PGE2; 2.0 mg dose group): 4.9 ± 0.7 pg/mL | Post-injection PGE2 (PGE2; 2.0 mg i.t.): 7.5 ± 1.7 pg/mL | CSF PGE2 concentration 60 min after ketorolac injection (PGE2; entire study population): 6.1 ± 0.6 pg/mL | CSF PGE2 concentration prior to ketorolac injection (PGE2; entire study population): 4.9 ± 0.5 pg/mL | effect on CSF PGE2 concentrations (PGE2; entire study population, 60 min after injection): not affected | duration of reversal of withdrawal threshold (tactile allodynia; 4 weeks after PSNL): 6 days | withdrawal threshold, ipsilateral hindpaw (tactile allodynia; 4 weeks after PSNL, two hours following injection): significantly reversed to pre-lesion baseline | withdrawal threshold, ipsilateral hindpaw (tactile allodynia; eight days after injection): returned to the pre-injection level | headache ([1]; 0.5 mg i.t., one individual, 24 h after injection, resolved the following day): mild headache | heart rate prior to injection, range ([1]; entire group): 52-86 bpm | minimum heart rate at any time after injection, range ([1]; entire group): 45-69 bpm | heart rate prior to injection ([1]; entire group, mean ± SE): 67±2.1 bpm | minimum heart rate at any time after injection ([1]; entire group, mean ± SE): 57±1.7 bpm | heart rate ([1]; for 1 hr following ketorolac, significant within each dose group except 2.0 mg): decreased | side effects ([1]; i.t. 0.25, 0.5, 1, or 2 mg open label dose-escalation, early studies of 14 subjects): no side effects were observed | blood pressure, oxyhemoglobin saturation, end-tidal CO2 ([1]; i.t. 0.25-2 mg): did not affect | deviation of blood pressure, oxyhemoglobin saturation, end-tidal CO2 from pre-injection values ([1]; i.t. 0.25-2 mg): ≤ 10% | side effects at long-term follow up ([1]; i.t. 0.25-2 mg): no side effects | subjective neurologic symptoms ([1]; i.t. 0.25-2 mg): no subjective neurologic symptoms in any volunteer | symptomatic bradycardia ([1]; i.t. 0.25-2 mg): In no case | sedation, anxiety, gastrointestinal or genitourinary symptoms, or dizziness ([1]; i.t. 0.25-2 mg, at any time): No volunteer reported | neurologic examination ([1]; i.t. 0.25-2 mg, twenty volunteers): no effect | side effects ([1]; i.t., doses up to 1.0 mg): no side effects
